# System: Human Tenon's capsule fibroblasts (HTCF)
# Assay: Oxidative stressor dosage curve, cell metabolic activity (MTT) of HTCF
# Assay type: cell-based
# Conditions: one-hour incubation, dose-dependent, n=4
# Description: The following preferred method was utilized in conducting the experiment: • 1) Culture cells (90% confluence) • 2) Load 5×10^4 cells/well in 24-well plates • 3) Change to serum-free medium overnight • 4) Treat cells • 5) Measure cell metabolic activity (MTT) or % cytotoxicity (LDH) • 6) Normalize results • 7) Replicate experiment with cell lines from different patients • 8) Conduct statistical analysis
# 1. Treat cells with serum free medium and tert-butyl hydroperoxide (t-BOOH) at 0 mM (VC), […], 0.1 mM, 0.5 mM, 1 mM and 2 mM for 30 min, 1 h, 2 h, 3 h
# 2. Measure cell metabolic activity with 3-(4,5-dimethylthiazol-2-yl)-2,5-diphenyltetrazolium bromide (MTT) assay
# FIGS. 5A-5D show the cell metabolic activity of HTCF cells in response to treatment with tert-butyl hydroperoxide (t-BOOH).
# Dose-dependent effect of a one-hour incubation.
smiles,measurement,value
"CC(C)(C)OO [tert-butyl hydroperoxide (t-BOOH), Tert-butyl hydroperoxide]",cell metabolic activity versus control sample,significant effect versus the control sample
